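Following 48 hours of exposure in 96-well plates, responses at five concentrations were used to interpolate endpoints linearly. The concentration for 50% growth inhibition is given as GI50. At the TGI there is no net growth.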
Key:
Test in all cases: inhibition of tumour cell growth, NCI panel, 48 h
786-0 renal = system: 786-0 renal
A498 renal = system: A498 renal
A549 NSCLC = system: A549 NSCLC
ACHN renal = system: ACHN renal
BT-549 breast = system: BT-549 breast
CAKI-1 renal = system: CAKI-1 renal
CCRF-CEM leukemia = system: CCRF-CEM leukemia
COLO 205 colon = system: COLO 205 colon
DU-145 prostate = system: DU-145 prostate
HCC-2998 colon = system: HCC-2998 colon
HCT-116 colon = system: HCT-116 colon
HCT-15 colon = system: HCT-15 colon
HL-60(TB) leukemia = system: HL-60(TB) leukemia
HOP-62 NSCLC = system: HOP-62 NSCLC
HS 578T breast = system: HS 578T breast
HT29 colon = system: HT29 colon
IGROV1 ovarian = system: IGROV1 ovarian
K-562 leukemia = system: K-562 leukemia
KM12 colon = system: KM12 colon
M14 melanoma = system: M14 melanoma
MALME-3M melanoma = system: MALME-3M melanoma
MCF7 breast = system: MCF7 breast
MDA-MB-231 breast = system: MDA-MB-231 breast
MDA-MB-435 = system: MDA-MB-435
MOLT-4 leukemia = system: MOLT-4 leukemia
NCI-H226 lung = system: NCI-H226 lung
NCI-H23 lung = system: NCI-H23 lung
NCI-H460 lung = system: NCI-H460 lung
NCI-H522 lung = system: NCI-H522 lung
NCI/ADR-RES ovarian = system: NCI/ADR-RES ovarian
OVCAR-3 ovarian = system: OVCAR-3 ovarian
OVCAR-4 ovarian = system: OVCAR-4 ovarian
OVCAR-5 ovarian = system: OVCAR-5 ovarian
OVCAR-8 ovarian = system: OVCAR-8 ovarian
PC-3 prostate = system: PC-3 prostate
RPMI-8226 leukemia = system: RPMI-8226 leukemia
RXF 393 renal = system: RXF 393 renal
SF-268 CNS = system: SF-268 CNS
SF-295 CNS = system: SF-295 CNS
SF-539 CNS = system: SF-539 CNS
SK-MEL-28 melanoma = system: SK-MEL-28 melanoma
SK-MEL-5 melanoma = system: SK-MEL-5 melanoma
SK-OV-3 ovarian = system: SK-OV-3 ovarian
SN12C renal = system: SN12C renal
SNB-19 CNS = system: SNB-19 CNS
SNB-75 CNS = system: SNB-75 CNS
SR leukemia = system: SR leukemia
SW-620 colon = system: SW-620 colon
T-47D breast = system: T-47D breast
TK-10 renal = system: TK-10 renal
UACC-257 melanoma = system: UACC-257 melanoma
UACC-62 melanoma = system: UACC-62 melanoma
UO-31 renal = system: UO-31 renal

O=C(Cc1ccc(OCc2ccccc2)cc1)NCc1ccc2c(c1)OCO2
GI50 (786-0 renal): 30.3 µM | TGI (786-0 renal): > 100 µM | GI50 (A498 renal): > 100 µM | TGI (A498 renal): > 100 µM | GI50 (A549 NSCLC): > 100 µM | TGI (A549 NSCLC): > 100 µM | GI50 (ACHN renal): > 100 µM | TGI (ACHN renal): > 100 µM | GI50 (BT-549 breast): > 100 µM | TGI (BT-549 breast): > 100 µM | GI50 (CAKI-1 renal): > 100 µM | TGI (CAKI-1 renal): > 100 µM | GI50 (CCRF-CEM leukemia): > 100 µM | TGI (CCRF-CEM leukemia): > 100 µM | GI50 (COLO 205 colon): 14.4 µM | TGI (COLO 205 colon): > 100 µM | GI50 (DU-145 prostate): > 100 µM | TGI (DU-145 prostate): > 100 µM | GI50 (HCC-2998 colon): > 100 µM | TGI (HCC-2998 colon): > 100 µM | GI50 (HCT-116 colon): 30.1 µM | TGI (HCT-116 colon): > 100 µM | GI50 (HCT-15 colon): 5.31 µM | TGI (HCT-15 colon): > 100 µM | GI50 (HL-60(TB) leukemia): 9.3 µM | TGI (HL-60(TB) leukemia): > 100 µM | GI50 (HOP-62 NSCLC): 6.98 µM | TGI (HOP-62 NSCLC): > 100 µM | GI50 (HS 578T breast): 9.82 µM | TGI (HS 578T breast): > 100 µM | GI50 (HT29 colon): 37.9 µM | TGI (HT29 colon): > 100 µM | GI50 (IGROV1 ovarian): > 100 µM | TGI (IGROV1 ovarian): > 100 µM | GI50 (K-562 leukemia): 4.64 µM | TGI (K-562 leukemia): > 100 µM | GI50 (KM12 colon): 10.8 µM | TGI (KM12 colon): > 100 µM | GI50 (M14 melanoma): 7.71 µM | TGI (M14 melanoma): > 100 µM | GI50 (MALME-3M melanoma): 29.2 µM | TGI (MALME-3M melanoma): > 100 µM | GI50 (MCF7 breast): 5.43 µM | TGI (MCF7 breast): > 100 µM | GI50 (MDA-MB-231 breast): 59 µM | TGI (MDA-MB-231 breast): > 100 µM | GI50 (MDA-MB-435): 2.32 µM | TGI (MDA-MB-435): 5.93 µM | GI50 (MOLT-4 leukemia): > 100 µM | TGI (MOLT-4 leukemia): > 100 µM | GI50 (NCI-H226 lung): > 100 µM | TGI (NCI-H226 lung): > 100 µM | GI50 (NCI-H23 lung): > 100 µM | TGI (NCI-H23 lung): > 100 µM | GI50 (NCI-H460 lung): > 100 µM | TGI (NCI-H460 lung): > 100 µM | GI50 (NCI-H522 lung): > 100 µM | TGI (NCI-H522 lung): > 100 µM | GI50 (NCI/ADR-RES ovarian): 9.26 µM | TGI (NCI/ADR-RES ovarian): > 100 µM | GI50 (OVCAR-3 ovarian): > 100 µM | TGI (OVCAR-3 ovarian): > 100 µM | GI50 (OVCAR-4 ovarian): > 100 µM | TGI (OVCAR-4 ovarian): > 100 µM | GI50 (OVCAR-5 ovarian): > 100 µM | TGI (OVCAR-5 ovarian): > 100 µM | GI50 (OVCAR-8 ovarian): > 100 µM | TGI (OVCAR-8 ovarian): > 100 µM | GI50 (PC-3 prostate): > 100 µM | TGI (PC-3 prostate): > 100 µM | GI50 (RPMI-8226 leukemia): > 100 µM | TGI (RPMI-8226 leukemia): > 100 µM | GI50 (RXF 393 renal): 5.18 µM | TGI (RXF 393 renal): > 100 µM | GI50 (SF-268 CNS): 6.72 µM | TGI (SF-268 CNS): > 100 µM | GI50 (SF-295 CNS): 64.4 µM | TGI (SF-295 CNS): > 100 µM | GI50 (SF-539 CNS): 9.11 µM | TGI (SF-539 CNS): > 100 µM | GI50 (SK-MEL-28 melanoma): > 100 µM | TGI (SK-MEL-28 melanoma): > 100 µM | GI50 (SK-MEL-5 melanoma): 70.7 µM | TGI (SK-MEL-5 melanoma): > 100 µM | GI50 (SK-OV-3 ovarian): 8.18 µM | TGI (SK-OV-3 ovarian): > 100 µM | GI50 (SN12C renal): > 100 µM | TGI (SN12C renal): > 100 µM | GI50 (SNB-19 CNS): 41.9 µM | TGI (SNB-19 CNS): > 100 µM | GI50 (SNB-75 CNS): 2.17 µM | TGI (SNB-75 CNS): 6.53 µM | GI50 (SR leukemia): 5.23 µM | TGI (SR leukemia): > 100 µM | GI50 (SW-620 colon): 7.14 µM | TGI (SW-620 colon): > 100 µM | GI50 (T-47D breast): 48.3 µM | TGI (T-47D breast): > 100 µM | GI50 (TK-10 renal): > 100 µM | TGI (TK-10 renal): > 100 µM | GI50 (UACC-257 melanoma): > 100 µM | TGI (UACC-257 melanoma): > 100 µM | GI50 (UACC-62 melanoma): 14.3 µM | TGI (UACC-62 melanoma): > 100 µM | GI50 (UO-31 renal): > 100 µM | TGI (UO-31 renal): > 100 µM

— PubChem BioAssay (NCI)
